Assay results from patent US11806341B2, “Methods of diagnosing and treating anxiety disorder” (THE CHILDREN'S HOSPITAL OF PHILADELPHIA, priority 2015, dated 2023).
Entries after “also recorded” stand apart in the source; their conditions may differ.

Tests used:
[1] = system: dementia-related cognitive impairment; conditions: Phase I-III trials, dementia-related indications; cited from earlier work
[2] = system: adolescent subjects previously diagnosed with ADHD who also had at least one genetic alteration in an mGluR network gene; assay: Open-label Phase 1b clinical trial of NFC-1 in adolescent ADHD subjects with a CNV in an mGluR network gene; type: in vivo, human
[3] = system: group I and group II/III mGluRs; conditions: Hirouchi 2000; cited from earlier work
[4] = system: adolescent subjects previously diagnosed with ADHD who also had at least one genetic alteration in an mGluR network gene; conditions: recently completed precision-medicine-based clinical trial; cited from earlier work

SMILES	safety and tolerability [1]	OCD symptoms during therapy ([2]; eight of the 30 ADHD subjects with symptoms of OCD)	dermatillomania symptoms (ear scratching, bleeding ulcer) during therapy ([2]; one subject with OCD and a history of ear scratching)	score on Vanderbilt Scale items related to anxiety (nos. 41, 42, and 47) ([2]; week 5, two subjects, all 3 items, at enrollment maximum score of 3 on 2 of the 3 items)	total "never" score for all BRIEF anxiety/mood questions for all subjects ([2]; week 5 of dose escalation (50-400 mg bid), all 30 subjects, score at enrollment was 125)	total "often" score for all BRIEF anxiety/mood questions for all subjects ([2]; week 5 of dose escalation (50-400 mg bid), all 30 subjects, score at enrollment was 154)	activation of mGluRs in vitro [3]	treatment of ADHD in subjects having a genetic alteration in an mGluR network gene [4]
O=C1CC[C@H](C(=O)N2CCCCC2)N1 [NFC-1, fasoracetam monohydrate]	generally safe and well tolerated	OCD symptoms improved	dermatillomania symptoms had reduced	3	191	77	–	–
O=C1CC[C@H](C(=O)N2CCCCC2)N1 [fasoracetam]	–	–	–	–	–	–	nonselective activator against all classes of mGluRs; also recorded: can stimulate both group I and group II/III mGluRs	successfully treated
